In brackets after ≈: the same amount, converted by molar mass. Activity calls are given as the source filed them. The rule behind the calls is not given here.
Columns and labels:
[1] = Dose normalized AUC in Sprague-Dawley rat at 5 mg/kg,po; format: ADME, organism-based; details: in vivo
[2] = Oral bioavailability in Sprague-Dawley rat at 5 mg/kg; format: ADME, organism-based; details: in vivo
[3] = Dose normalized AUC in Sprague-Dawley rat at 10 mg/kg,po; format: ADME, organism-based; details: in vivo
[4] = Half life in Sprague-Dawley rat at 10 mg/kg,po; format: ADME, organism-based; details: in vivo
[5] = Oral bioavailability in Sprague-Dawley rat at 10 mg/kg; format: ADME, organism-based; details: in vivo
[6] = Half life in Sprague-Dawley rat at 5 mg/kg,po; format: ADME, organism-based; details: in vivo
[7] = Solubility of the compound in FaSSIF; format: ADME
[8] = Cmax in Sprague-Dawley rat at 10 mg/kg,po; format: ADME, organism-based; design: dose 10 mg/kg, route po; details: in vivo
[9] = Cmax in Sprague-Dawley rat at 5 mg/kg,po; format: ADME, organism-based; design: dose 5 mg/kg, route po; details: in vivo
[10] = Induction of HbF production in human erythroid progenitor cells measured after 3 days by ELISA assay; format: functional, cell-based; details: Erythroid progenitor cell, 72 h
[11] = (§1) Induction of HbF production in human erythroid progenitor cells at upto 33 uM measured after 3 days by ELISA assay; format: functional, cell-based; details: Erythroid progenitor cell, 72 h
[12] = tested on: Erythroid progenitor cell; assay: as §1; format: functional, cell-based; details: time 3.0 day
[13] = Solubility of the compound in simulated intestinal fluid measured after 4 hrs; format: ADME
[14] = Genotoxicity in Salmonella typhimurium in absence of S9 fraction by Ames test; format: toxicity; details: salmonella enterica subsp. enterica serovar typhimurium
[15] = Genotoxicity in Salmonella typhimurium in presence of S9 fraction by Ames test; format: toxicity, subcellular; details: salmonella enterica subsp. enterica serovar typhimurium
[16] = Cmax in Sprague-Dawley rat at 1 mg/kg,iv; format: ADME, organism-based; design: dose 1 mg/kg, route iv; details: in vivo
[17] = Volume of distribution at steady state in Sprague-Dawley rat at 5 mg/kg,po or 1 mg/kg,iv; format: ADME, organism-based; details: in vivo
[18] = Dose normalized AUC in Sprague-Dawley rat at 1 mg/kg, iv; format: ADME, organism-based; details: in vivo
[19] = Half life in Sprague-Dawley rat at 1 mg/kg, iv; format: ADME, organism-based; details: in vivo
[20] = Cmax in Sprague-Dawley rat at 28 mg/kg,po; format: ADME, organism-based; design: dose 28 mg/kg, route po; details: in vivo
[21] = Dose normalized AUC in Sprague-Dawley rat at 28 mg/kg,po; format: ADME, organism-based; details: in vivo
[22] = Half life in Sprague-Dawley rat at 28 mg/kg,po; format: ADME, organism-based; details: in vivo
[23] = Oral bioavailability in Sprague-Dawley rat at 28 mg/kg; format: ADME, organism-based; details: in vivo
[24] = Cmax in Sprague-Dawley rat at 100 mg/kg,po; format: ADME, organism-based; design: dose 100 mg/kg, route po; details: in vivo
[25] = Half life in Sprague-Dawley rat at 100 mg/kg,po; format: ADME, organism-based; details: in vivo
[26] = Dose normalized AUC in Sprague-Dawley rat at 100 mg/kg,po; format: ADME, organism-based; details: in vivo
[27] = Oral bioavailability in Sprague-Dawley rat at 100 mg/kg; format: ADME, organism-based; details: in vivo

SMILES: C[C@@H](C(=O)O)c1ccc2c(c1)B(O)OC2
- AUC/dose [1]: 429 kg·ng·h/mL/mg
- bioavailability [2]: 83%
- AUC/dose [3]: 283 kg·ng·h/mL/mg
- half-life [4]: 3.03 h
- bioavailability [5]: 55%
- half-life [6]: 16.6 h
- solubility [7]: > 1000 µg/mL
- Cmax [8]: 2710 ng/mL
- Cmax [9]: 1860 ng/mL
- EC50 ([10]; read-out: EC50): 40 nM
- EC50 ([10]; read-out: pEC50 (converted)): 39.8 nM

SMILES: CC(C(=O)NS(=O)(=O)C1CC1)c1ccc2c(c1)B(O)OC2 (racemic)
- solubility [7]: > 1000 µg/mL
- EC50 ([10]; read-out: pEC50 (converted)): 26.9 nM

SMILES: CC(C)(C)OC(=O)NCc1ccc(S(=O)(=O)NC(=O)CCc2ccc3c(c2)B(O)OC3)cc1
- EC50 [11]: 912 nM

SMILES: Cc1ccc(NC(=O)c2cccn(Cc3ccccc3)c2=O)cc1B(O)O
- Activity [12]: inactive
- EC50 ([10]; read-out: pEC50 (converted)): > 31600 nM

SMILES: O=C(Nc1cccn(Cc2ccccc2)c1=O)c1ccc2c(c1)B(O)OC2
- solubility [7]: 3 µg/mL (≈ 0.00833 mM)
- solubility at 4 h [13]: 3 µg/mL (≈ 0.00833 mM)
- Activity [14]: Non-Toxic
- Activity [15]: Non-Toxic
- EC50 ([10]; read-out: pEC50 (converted)): 1020 nM

SMILES: O=C(Nc1cccc(B(O)O)c1)c1cccn(Cc2ccccc2)c1=O
- Activity [12]: inactive
- EC50 ([10]; read-out: pEC50 (converted)): > 31600 nM

SMILES: O=C(CCc1ccc2c(c1)B(O)OC2)NS(=O)(=O)c1ccccc1
- solubility [7]: > 1000 µg/mL
- EC50 ([10]; read-out: pEC50 (converted)): 832 nM

SMILES: CC(C(=O)O)c1ccc2c(c1)B(O)OC2 (racemic)
- solubility [7]: > 1000 µg/mL
- EC50 ([10]; read-out: pEC50 (converted)): 47.9 nM

SMILES: O=C(O)CNC(=O)c1ccc2c(c1)B(O)OC2
- EC50 ([10]; read-out: pEC50 (converted)): > 31600 nM

SMILES: NC(=O)c1ccc2c(c1)B(O)OC2
- EC50 ([10]; read-out: pEC50 (converted)): > 31600 nM

SMILES: O=C(O)c1ccn(-c2ccc3c(c2)B(O)OC3)c1
- solubility [7]: 510 µg/mL (≈ 2.1 mM)
- EC50 ([10]; read-out: pEC50 (converted)): 316 nM

SMILES: O=C(CNC(=O)c1ccc2c(c1)B(O)OC2)NCc1ccccc1
- EC50 ([10]; read-out: pEC50 (converted)): > 31600 nM

SMILES: O=C(NS(=O)(=O)c1ccc2c(c1)B(O)OC2)c1ccccc1
- solubility [7]: 980 µg/mL (≈ 3.09 mM)
- EC50 ([10]; read-out: pEC50 (converted)): 110 nM

SMILES: OB1OCc2ccc(Cc3nnn[nH]3)cc21
- AUC/dose [1]: 103 kg·ng·h/mL/mg
- bioavailability [2]: 24%
- half-life [6]: 3.67 h
- solubility [7]: > 1000 µg/mL
- Cmax [9]: 283 ng/mL
- EC50 ([10]; read-out: pEC50 (converted)): 9.12 nM

SMILES: O=C(Cc1ccc2c(c1)B(O)OC2)NS(=O)(=O)C1CCCC1
- solubility [7]: 880 µg/mL (≈ 2.72 mM)
- EC50 ([10]; read-out: pEC50 (converted)): 15.1 nM

SMILES: NCc1ccc(S(=O)(=O)NC(=O)CCc2ccc3c(c2)B(O)OC3)cc1
- EC50 [11]: 6030 nM

SMILES: O=C(Nc1cccn(Cc2ccccc2)c1=O)c1cc(F)c2c(c1)B(O)OC2
- solubility [7]: 8 µg/mL (≈ 0.0212 mM)
- EC50 ([10]; read-out: pEC50 (converted)): 2140 nM

SMILES: O=C(O)c1ccc2c(c1)B(O)OC2
- solubility [7]: 950 µg/mL (≈ 5.34 mM)
- EC50 ([10]; read-out: pEC50 (converted)): 9330 nM

SMILES: CCC(C(=O)O)c1ccc2c(c1)B(O)OC2 (racemic)
- solubility [7]: 850 µg/mL (≈ 3.86 mM)
- EC50 ([10]; read-out: pEC50 (converted)): 50.1 nM

SMILES: OB1OCc2ccc(Oc3nnn[nH]3)c(F)c21
- solubility [7]: > 1000 µg/mL
- EC50 ([10]; read-out: pEC50 (converted)): 724 nM

SMILES: O=C(Nc1ccc2c(c1)B(O)OC2)c1cccn(Cc2ccccc2)c1=O
- AUC/dose [1]: 1120 kg·ng·h/mL/mg
- Cmax [16]: 792 ng/mL
- Vdss [17]: 1.7 L/kg
- AUC/dose [18]: 4210 kg·ng·h/mL/mg
- bioavailability [2]: 27%
- half-life [6]: 4.5 h
- half-life [19]: 6.4 h
- Cmax [9]: 1420 ng/mL

SMILES: O=C(O)c1cccn1-c1ccc2c(c1)B(O)OC2
- solubility [7]: > 1000 µg/mL
- EC50 ([10]; read-out: pEC50 (converted)): 11500 nM

SMILES: O=C(Nc1cccn(Cc2ccccc2)c1=O)c1cc2c(cc1F)COB2O
- EC50 ([10]; read-out: pEC50 (converted)): > 31600 nM

SMILES: COc1cc2c(cc1C(=O)NS(=O)(=O)c1ccccc1)B(O)OC2
- EC50 [11]: > 31600 nM

SMILES: O=C(Cc1ccc2c(c1)B(O)OC2)NS(=O)(=O)c1ccccc1
- AUC/dose [1]: 560 kg·ng·h/mL/mg
- Cmax [20]: 53000 ng/mL
- bioavailability [2]: 28%
- half-life [6]: 7.29 h
- AUC/dose [21]: 2120 kg·ng·h/mL/mg
- solubility [7]: 900 µg/mL (≈ 2.72 mM)
- half-life [22]: 3.88 h
- Cmax [9]: 1290 ng/mL
- bioavailability [23]: > 100%
- EC50 ([10]; read-out: pEC50 (converted)): 64.6 nM

SMILES: O=C(Cc1ccc2c(c1)B(O)OC2)NS(=O)(=O)C1CC1
- solubility [7]: 700 µg/mL (≈ 2.37 mM)
- EC50 ([10]; read-out: pEC50 (converted)): 18.2 nM

SMILES: CC(C)(C(=O)O)c1ccc2c(c1)B(O)OC2
- solubility [7]: > 1000 µg/mL
- EC50 ([10]; read-out: pEC50 (converted)): 115 nM

SMILES: CC(C)C(C(=O)O)c1ccc2c(c1)B(O)OC2 (racemic)
- solubility [7]: > 1000 µg/mL
- EC50 ([10]; read-out: pEC50 (converted)): 646 nM

SMILES: O=C(O)Cc1ccc2c(c1)B(O)OC2
- solubility [7]: > 1000 µg/mL
- EC50 ([10]; read-out: pEC50 (converted)): 1070 nM

SMILES: NC(=O)CNC(=O)c1ccc2c(c1)B(O)OC2
- EC50 ([10]; read-out: pEC50 (converted)): > 31600 nM

SMILES: C[C@H](C(=O)O)c1ccc2c(c1)B(O)OC2
- AUC/dose [1]: 451 kg·ng·h/mL/mg
- Cmax [24]: 47200 ng/mL
- half-life [25]: 4.53 h
- bioavailability [2]: 88%
- half-life [6]: 1.14 h
- solubility [7]: 950 µg/mL (≈ 4.61 mM)
- AUC/dose [26]: 683 kg·ng·h/mL/mg
- bioavailability [27]: > 100%
- Cmax [9]: 1730 ng/mL
- EC50 ([10]; read-out: pEC50 (converted)): 871 nM

SMILES: O=C(Nc1cccn(Cc2ccccc2)c1=O)c1ccc2c(c1F)B(O)OC2
- solubility [7]: 4 µg/mL (≈ 0.0106 mM)
- EC50 ([10]; read-out: pEC50 (converted)): 91.2 nM

SMILES: CC(C)(c1ccc2c(c1)B(O)OC2)c1nnn[nH]1
- AUC/dose [1]: 612 kg·ng·h/mL/mg
- bioavailability [2]: 68%
- AUC/dose [3]: 1049 kg·ng·h/mL/mg
- half-life [4]: 1.53 h
- bioavailability [5]: > 100%
- half-life [6]: 1.05 h
- solubility [7]: 930 µg/mL (≈ 3.81 mM)
- Cmax [8]: 3880 ng/mL
- Cmax [9]: 1180 ng/mL
- EC50 ([10]; read-out: pEC50 (converted)): 26.3 nM

SMILES: OB1OCc2ccc(OCc3nnn[nH]3)cc21
- AUC/dose [1]: 38 kg·ng·h/mL/mg
- Cmax [24]: 4900 ng/mL
- half-life [25]: 3.54 h
- bioavailability [2]: 13%
- half-life [6]: 1.3 h
- solubility [7]: > 1000 µg/mL
- AUC/dose [26]: 184 kg·ng·h/mL/mg
- bioavailability [27]: 62%
- Cmax [9]: 71 ng/mL
- EC50 ([10]; read-out: pEC50 (converted)): 275 nM

SMILES: OB1OCc2ccc(Oc3nnn[nH]3)cc21
- solubility [7]: > 1000 µg/mL
- EC50 ([10]; read-out: pEC50 (converted)): 129 nM

SMILES: O=C(O)CCc1ccc2c(c1)B(O)OC2
- solubility [7]: > 1000 µg/mL
- EC50 ([10]; read-out: pEC50 (converted)): 1120 nM

Source: ChEMBL document CHEMBL5252551, “A hit deconstruction approach for the discovery of fetal hemoglobin inducers” (Bioorg Med Chem Lett, 2018)
